Measurements from patent publication US20210238136A1, “AZETIDINE DERIVATIVE, AND PRODRUG THEREOF” (DAIICHI SANKYO COMPANY, LIMITED, priority 2018, published 2021).

How the values were obtained:
NZB/W F1 mice = assay: Survival of NZB/W F1 mice that naturally develop SLE-like symptoms and nephritis; format: in vivo, mouse (NZB/W F1); conditions: oral from the age of 12 weeks; Example 44 at 30, 100 mg/kg BID; MMF 60 mg/kg QD; Vehicle survival rate 35%
Experimental: FIG. 4 is a graph showing the effect of the compound of Example 44 in NZB/W F1 mice that naturally develop SLE-like symptoms and nephritis. To NZB/W F1 mice, the compound of Example 44 was orally administered at 30, 100 mg/kg, BID, and MMF was orally administered at 60 mg/kg, QD, starting at the age of 12 weeks. The vertical axis indicates the survival rate and the horizontal axis indicates the period. Both of the Vehicle group and the compound of Example 44 administration group was at N=20, and the MMF administration group was at N=15. The surviving days was analyzed by the Kaplan-Meier method, and the group in which the p-value was 0.001 or less compared to the Vehicle group by the log rank test is shown by ***.
Effect of Compound of Example 44 in NZB/W F1 Mice that Naturally Develop SLE-Like Symptoms and Nephritis
To NZB/W F1 mice that naturally develop SLE-like symptoms and nephritis, test substance was forcibly orally administered (0.2 mL/mouse) twice daily with a feeding needle, starting at the age of 12 weeks. The compound of Example 44 was orally administered at 30, 100 mg/kg, BID, and MMF was orally administered at 60 mg/kg, QD. […] Mice were observed daily, and those that reached a dying state such as weight loss and dyspnea were euthanized, and the survival rate was evaluated. The number of survival days was analyzed by the Kaplan-Meier method and the log rank test was performed. […]

mouse acute GVHD model = assay: Mouse acute GVHD model, IFN-γ concentration in plasma; format: in vivo, mouse (BDF1 host, C57BL/6N donor); conditions: for effective dose, suppression of IFN-γ in plasma: oral, twice daily from Day 0, plasma on Day 7, significant relative to the Vehicle group
Experimental: FIG. 2 is a graph showing the effect of the compound of Example 89 in mouse acute GVHD models. The compound of Example 89 was orally administered at 1.5, 5, 15, or 50 mg/kg, BID. The vertical axis is the concentration of interferon gamma (sometimes abbreviated herein as IFN-γ or IFN-g) in blood on day 7 after elicitation in the model.
Effect of Test Substance in Mouse Acute GVHD Model
A mouse acute graft-versus-host disease (GVHD) model was generated in accordance with a previous report (Puliaev R et al. Differential requirement for IFN-gamma in CTL maturation in acute murine graft-versus-host disease. J Immunol. 173, 910-9 (2004)). Splenocytes were prepared from euthanized donor mice (C57BL/6N), suspended in PBS without hemolysis of erythrocytes, and administered to host mice, BDF1 mice, from the tail vein (the number of transfer cells was adjusted to be 7 to 8×10^7 cells/0.2 mL/mouse in every test, and matched between individuals within the same test). In the Normal group, 0.2 mL of PBS was administered in place of the cells. The test substance was crushed in an agate mortar, and then suspended in a 0.5% hydroxypropyl cellulose (HPC) solution to prepare a dosage solution. In the Vehicle group, 0.5% HPC was used as a dosage solution. To the host mice, the dosage solution was forcibly orally administered (0.2 mL/mouse) twice daily with a feeding needle from the morning of Day 0 (cell transfer) to the end of the experiment. The tail vein was cut without anesthesia on Day 7 and a small amount of blood was collected with a hematocrit tube (EDTA). Plasma was collected by centrifugation and IFN-γ concentration in plasma was measured with an αLISA kit (Mouse IFN-γ alphaLISA, PerkinElimer, AL501C). […] For the difference between the Normal group and the Vehicle group, comparison between two groups was performed by Student's t-test. The difference between the Vehicle group and the test substance administration group was analyzed by a parametric multiple-comparison test, Dunnett test.

mouse chronic GVH model = assay: Kidney disorder in mouse chronic GVH model, urine protein/creatinine ratio; format: in vivo, mouse (BDF1 host, DBA2 donor); conditions: for minimum effective dose / effective dose, urine protein/creatinine ratio: oral, twice daily from Day 4, urine on Day 32, p-value of 0.05 or less relative to the Vehicle group
Experimental: FIG. 3 is a box plot graph showing the effect of the compound of Example 89 on renal disorder in mouse chronic GVH models. The compound of Example 89 was orally administered at 1.5, 5, 15, or 50 mg/kg, BID, and MMF was orally administered at 30 mg/kg, BID. […] The boxes in the graph represent box plots of the median and the quartile range for each group at N=12. The plots show the values of each individual. Both between the non-elicitation group (Normal group) and the Vehicle group, and between the Vehicle group and the MMF group were compared by the Wilcoxon test (non-parametric, two-group comparison). # means that the p-value is 0.05 or less, and $$ means that the p-value is 0.01 or less, respectively. The Vehicle group and the compound group of Example 89 were analyzed by the Shirley-Williams test (non-parametric, multiple comparisons with dose response). The groups in which the p-value is 0.01 or less and 0.001 or less are shown by ** and ***, respectively.
Effect of Test Substance on Kidney Disorder in Mouse Chronic GVH Model
A mouse chronic graft-versus-host (GVH) model was generated in accordance with a previous report (Via CS. Advances in lupus stemming from the parent-into-F1 model. Trends Immunol. 31, 236-45 (2010)). Splenocytes were prepared from euthanized donor mice (DBA2 mice), suspended in PBS without hemolysis of erythrocytes, and administered to host mice, BDF1 mice, from tail veins (1×10^8 cells/0.2 mL/mouse) at Day 0 and Day 4, twice. In the Normal group, 0.2 mL of PBS was administered in place of the cells. The test substance was crushed in an agate mortar, and then suspended in a 0.5% hydroxypropyl cellulose (HPC) solution to prepare a dosage solution. In the Vehicle group, 0.5% HPC was used as a dosage solution. To the host mice, the dosage solution was forcibly orally administered (0.2 mL/mouse) twice daily with a feeding needle from Day 4 (second cell transfer) to the end of the experiment. Urine was collected on Day 32 under free diet with a metabolic cage. Urine protein concentration was measured with a urine protein test kit (total protein kit microTP test wako, FUJIFILM Wako Pure Chemical Corporation, pyrogallol red method), and urine creatinine concentration was measured using a creatinine test kit (LabAssay™ creatinine, FUJIFILM Wako Pure Chemical Corporation, Jaffe method), and the ratio of urine protein to creatinine was calculated for each individual. […] For the difference between the Normal group and the Vehicle group, the Wilcoxon test (non-parametric, comparison between two groups) was performed, and for the difference between the Vehicle group and the test substance administration group, the analysis was performed by the Shirley-Williams test (non-parametric, multiple comparison with dose response).

| SMILES | survival until the end of the experiment (age of 44 weeks) (NZB/W F1 mice) | effective dose, suppression of IFN-γ in plasma (mouse acute GVHD model) | minimum effective dose / effective dose, urine protein/creatinine ratio (mouse chronic GVH model) | effect on IFN-γ in plasma (mouse acute GVHD model; oral 1.5, 5, 15, or 50 mg/kg BID, Day 7) | effect on urine protein/creatinine ratio (mouse chronic GVH model; oral 1.5, 5, 15, or 50 mg/kg BID, Day 32) |
| --- | --- | --- | --- | --- | --- |
| COc1c(C)c2c(c(O)c1C/C=C(\C)CCC(=O)OCCN1CCOCC1)C(=O)OC2 [MMF, mycophenolate mofetil, reference compound] | no death was observed |  |  |  |  |
| CC(C)C(=O)O[C@@H](C)OC(=O)N[C@@H](Cc1cccc(S(=O)(=O)N2CC(Oc3ccc(F)cc3)(c3ccccc3)C2)c1)C(=O)O [Example 104, (S)-3-(3-((3-(4-Fluorophenoxy)-3-phenylazetidin-1-yl)sulfonyl)phenyl)-2-((((R)-1-(isobutyryloxy)ethoxy)carbonyl)amino)propanoic acid] |  | ≥ 15 mg/kg, BID | 15 mg/kg, BID |  |  |
| C[C@H](OC(=O)N[C@@H](Cc1cccc(S(=O)(=O)N2CC(Oc3cccc(F)c3)(c3ccccc3)C2)c1)C(=O)O)OC(=O)C(C)(C)C [Example 97] |  |  | 15 mg/kg, BID |  |  |
| CC(=O)O[C@@H](C)OC(=O)N[C@@H](Cc1cccc(S(=O)(=O)N2CC(Oc3cccc(F)c3)(c3ccccc3)C2)c1)C(=O)O [Example 89, (S)-2-((((R)-1-Acetoxyethoxy)carbonyl)amino)-3-(3-((3-(3-fluorophenoxy)-3-phenylazetidin-1-yl)sulfonyl)phenyl)propanoic acid] |  | ≥ 1.5 mg/kg, BID | 15 mg/kg, BID | inhibited IFN-γ in plasma in a dose-dependent manner | suppressed the urine protein/creatinine ratio in a dose-dependent manner |
| CC(OC(=O)N[C@@H](Cc1cccc(S(=O)(=O)N2CC(Oc3ccc(F)cc3)(c3ccccc3)C2)c1)C(=O)O)OC(=O)C(C)(C)C (stereo partly drawn) [Example 44, (2S)-3-(3-((3-(4-Fluorophenoxy)-3-phenylazetidin-1-yl)sulfonyl)phenyl)-2-(((1-(pivaloyloxy)ethoxy)carbonyl)amino)propanoic acid] | no death was observed | ≥ 10 mg/kg, BID |  |  |  |
